Laboratory results as given in patent US20250302791A1, “METHOD FOR TREATING AND/OR PREVENTING EPILEPSY AND REDUCING SIDE EFFECT OF ANTI-EPILEPTIC DRUG BY USING CYNARIN” (FU JEN CATHOLIC UNIVERSITY, priority 2024, published 2025).

Columns and labels:
[1] = tested on: KA-induced epilepsy model in rats; test: kainic acid (KA)-induced seizure behavior in rats, Racine scale scoring (seizure score and latency); format: in vivo, Sprague-Dawley rats
From the text: Experimental animals are as follows. Male Sprague-Dawley rats (weight 200-250 g) purchased from BioLASCO in Taipei were housed in the Animal Center of Fu Jen Catholic University and maintained in a 12-h light/dark cycle with food and water available ad libitum. Rats were allowed to acclimate to laboratory conditions for at least 3 days before the start of the experiment.
The experimental design of the present invention is as follows. Cynarin pretreatment reduces epileptic behavior in animals induced by kainic acid (KA). […] Behavioral scoring was based on the Racine scale (1972), see FIG. 1.
Experimental grouping is as follows. […]
The experimental protocol for Racine scale behavioral scoring is as follows. The rats' epileptic seizure activity was continuously monitored for 3 hours, and epileptic behavior was scored according to the 1972 Racine scale. […]
Statistical analysis is as follows. […] Data are expressed as mean±standard error (SEM). Statistical significance was determined by one-way analysis of variation (ANOVA), combined with Bonferroni's post hoc test, and a p-value less than 0.05 was used as the criterion for significant differences.
The rats were pretreated either with normal saline (control), or CYN (0.5-25 mg/kg/day, p.o.), or CBZ (50 or 100 mg/kg/day, p.o.) or CYN 5 mg/kg/day+CBZ 50 mg/kg/day (p.o.) for 7 days before KA injection (15 mg/kg, i.p.). […] Data are expressed as mean±SEM. […]

[2] = tested on: hippocampal CA1/CA3 nerve cells of KA-treated rats; test: NeuN staining of hippocampal CA1/CA3 nerve cells in KA-treated rats; format: in vivo; details: Cynarin 10 mg/kg p.o. once daily for 7 days before KA 15 mg/kg i.p.; NeuN staining 72 h after KA
Description: In this example, rats were divided into four groups: a control group, a KA-only (15 mg/kg) treatment group, a Cynarin (CYN) (10 mg/kg) plus KA (15 mg/kg) treatment group, and a triple treatment group consisting of Cynarin (CYN) (5 mg/kg), Carbamazepine (CBZ) (50 mg/kg), and KA (15 mg/kg). During the experiment, except for the control group, rats in each group were administered Cynarin orally once daily for seven days. Then, on the eighth day, all experimental groups, except the control group, were further treated by intraperitoneal injection of KA (15 mg/kg).
FIGS. 3A and 3B show the effect of Cynarin (CYN) pretreatment on kainic acid (KA)-induced nerve cell death in the hippocampus of rats. (3A) Representative images of Neuronal nuclei (NeuN) staining at 72 h after KA i.p. injection. (3B) Semiquantitative analysis of NeuN-positive cells in the CA1 and CA3 regions. Data are mean±SEM (n=5 per group). ***, p<0.001 vs. control group. #, p<0.001 vs. KA group.

**Q.** Which “effect on KA-induced epilepsy (seizure score and latency)” value ([1]; CYN 0.5 mg/kg/day p.o. for 7 days before KA 15 mg/kg i.p., rats observed 3 h) does the source give for `O=C(/C=C/c1ccc(O)c(O)c1)O[C@@H]1C[C@@](OC(=O)/C=C/c2ccc(O)c(O)c2)(C(=O)O)C[C@@H](O)[C@@H]1O` [CYN, Cynarin] here?
**A.** did not affect the epilepsy induced by KA

**Q.** And the “inhibitory effect on epileptic seizure behavior” value ([1]; CYN 10 mg/kg/day p.o. for 7 days before KA 15 mg/kg i.p., compared with CYN 5 and 25 mg/kg, equivalent to CBZ 100 mg/kg)?
**A.** strongest inhibitory effect on epileptic seizure behavior in animals

**Q.** And the “KA-induced reduction of the number of hippocampal CA1/CA3 nerve cells (NeuN-positive cells)” value [2]?
**A.** can also be reduced
